# From ChEMBL document CHEMBL1201862, “PubChem BioAssay data set” (2004)
#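 Cells were grown in 96-well plates and exposed to each compound for 48 hours at five concentrations; endpoints were interpolated linearly between bracketing concentrations, or set to the highest concentration if not reached. Here, GI50 denotes the concentration required for 50% inhibition of growth.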 Active and inactive are the calls of the source. Rule as the data show it: active = GI50 up to about 1.1 µM and inactive = higher.
# Experiments:
# Assay in all cases: NCI-60 cell line screen, 48 h
# CCRF-CEM = system: CCRF-CEM
# K562 = system: K562
# SF-295 = system: SF-295
# HL-60 = system: HL-60
# NCI-H226 = system: NCI-H226
# UACC-257 = system: UACC-257
# ACHN = system: ACHN
# OVCAR-3 = system: OVCAR-3
# SNB-75 = system: SNB-75
# HCT-15 = system: HCT-15
# A549 = system: A549
# HCC 2998 = system: HCC 2998
# HCT-116 = system: HCT-116
# SN12C = system: SN12C
# SK-MEL-5 = system: SK-MEL-5
# RXF 393 = system: RXF 393
# UACC-62 = system: UACC-62
# SW-620 = system: SW-620
Compound,GI50 (CCRF-CEM),GI50 (K562),GI50 (SF-295),GI50 (HL-60),GI50 (NCI-H226),GI50 (UACC-257),GI50 (ACHN),GI50 (OVCAR-3),GI50 (SNB-75),GI50 (HCT-15) [µM],GI50 (A549),GI50 (HCC 2998),GI50 (HCT-116),GI50 (SN12C),GI50 (SK-MEL-5),GI50 (RXF 393),GI50 (UACC-62),GI50 (SW-620)
N#Cc1c2nc3ccccc3nc2n2ccc3ccccc3c12,> 100 µM (inactive),> 100 µM (inactive),> 100 µM (inactive),> 100 µM (inactive),> 100 µM (inactive),> 100 µM (inactive),> 100 µM (inactive),> 100 µM (inactive),> 100 µM (inactive),> 100,> 100 µM (inactive),> 100 µM (inactive),54 µM (inactive),> 100 µM (inactive),> 100 µM (inactive),,,
COC(=O)C1=C(C(=O)OC)C2(OC(C)=O)c3ccccc3-c3ccccc3C12 (configuration not stated),0.733 µM (active),1.83 µM (inactive),17.9 µM (inactive),4.85 µM (inactive),16.5 µM (inactive),5.96 µM (inactive),2.54 µM (inactive),5.53 µM (inactive),11.7 µM (inactive),5.26,17.3 µM (inactive),16.7 µM (inactive),3.66 µM (inactive),4.89 µM (inactive),14.1 µM (inactive),4.8 µM (inactive),11 µM (inactive),1.66 µM (inactive)
CCCCN(CCCC)c1c([N+](=O)[O-])c(=O)nc2ccccn12,44.6 µM (inactive),37.2 µM (inactive),,,75.3 µM (inactive),,35.2 µM (inactive),45.8 µM (inactive),30.8 µM (inactive),39.4,33.7 µM (inactive),,38.9 µM (inactive),34.1 µM (inactive),33.5 µM (inactive),,36.7 µM (inactive),36.2 µM (inactive)
CC[C@H](C)[C@H]1NC(=O)C(C(C)=O)=C1O,52.2 µM (inactive),> 100 µM (inactive),> 100 µM (inactive),99.8 µM (inactive),> 100 µM (inactive),51.6 µM (inactive),> 100 µM (inactive),72.9 µM (inactive),91.2 µM (inactive),79.8,> 100 µM (inactive),54 µM (inactive),51.9 µM (inactive),83.6 µM (inactive),98.9 µM (inactive),23.3 µM (inactive),97.5 µM (inactive),21.4 µM (inactive)
CCOC(=O)C(=O)C(C#N)c1ccc(Cl)cc1 (configuration not stated),,> 100 µM (inactive),> 100 µM (inactive),> 100 µM (inactive),62.4 µM (inactive),> 100 µM (inactive),> 100 µM (inactive),> 100 µM (inactive),> 100 µM (inactive),> 100,> 100 µM (inactive),,> 100 µM (inactive),> 100 µM (inactive),> 100 µM (inactive),> 100 µM (inactive),> 100 µM (inactive),> 100 µM (inactive)
CC(=O)N/C(=C\c1cccc([N+](=O)[O-])c1)c1nc2ccc3c(c2[nH]1)C(=O)c1ccccc1C3=O,0.885 µM (active),23.9 µM (inactive),> 100 µM (inactive),2.76 µM (inactive),> 100 µM (inactive),,4.37 µM (inactive),> 100 µM (inactive),21.3 µM (inactive),13.9,26.6 µM (inactive),> 100 µM (inactive),17.9 µM (inactive),21 µM (inactive),> 79.6 µM (inactive),22.8 µM (inactive),> 49.8 µM (inactive),31.9 µM (inactive)
CC1=C(CO)C(=O)OC(C(C)C2CCC3C4CC5OC56C(O)C(N5CC5)=CC(=O)C6(C)C4CCC23C)C1 (configuration not stated),2.61 µM (inactive),3.59 µM (inactive),16.5 µM (inactive),1.61 µM (inactive),14.2 µM (inactive),11.9 µM (inactive),5.74 µM (inactive),3.43 µM (inactive),4.01 µM (inactive),3.46,10.4 µM (inactive),2.93 µM (inactive),3.02 µM (inactive),6.58 µM (inactive),12.8 µM (inactive),12 µM (inactive),10.5 µM (inactive),2.56 µM (inactive)
CCOC(=O)NC(=O)c1c[nH]c(=O)[nH]c1=O,> 100 µM (inactive),> 100 µM (inactive),> 100 µM (inactive),> 100 µM (inactive),> 100 µM (inactive),> 100 µM (inactive),> 100 µM (inactive),> 100 µM (inactive),> 100 µM (inactive),> 100,> 100 µM (inactive),> 100 µM (inactive),> 100 µM (inactive),> 100 µM (inactive),> 100 µM (inactive),,> 100 µM (inactive),> 100 µM (inactive)
O=C(CC1(O)C(=O)Nc2c(Cl)cc(Cl)cc21)c1ccc2ccccc2c1 (configuration not stated),10.2 µM (inactive),3.18 µM (inactive),7.93 µM (inactive),3.18 µM (inactive),,12.6 µM (inactive),14.4 µM (inactive),6.18 µM (inactive),3.99 µM (inactive),3.62,5.2 µM (inactive),> 10 µM (inactive),,10.4 µM (inactive),6.11 µM (inactive),8.17 µM (inactive),3.55 µM (inactive),3.66 µM (inactive)
CN(C)c1ccc(/C=c2\sc3nnc(Cc4ccccc4)n3c2=O)cc1,> 10 µM (inactive),> 10 µM (inactive),> 10 µM (inactive),> 10 µM (inactive),> 10 µM (inactive),> 10 µM (inactive),75.3 µM (inactive),> 10 µM (inactive),> 10 µM (inactive),20.2,37 µM (inactive),> 100 µM (inactive),17.1 µM (inactive),> 10 µM (inactive),> 10 µM (inactive),31.8 µM (inactive),> 10 µM (inactive),13.7 µM (inactive)
N#Cc1cccc(/C=N/N/C(N)=N/O)c1,57.7 µM (inactive),41.2 µM (inactive),> 100 µM (inactive),15.2 µM (inactive),56.1 µM (inactive),> 100 µM (inactive),31.7 µM (inactive),> 100 µM (inactive),14.8 µM (inactive),68.5,24.9 µM (inactive),,> 100 µM (inactive),99.8 µM (inactive),,57.7 µM (inactive),13 µM (inactive),> 100 µM (inactive)
CC(C)N(C(=O)c1cccc(C(=O)N(C(C)C)C(C)C)c1)C(C)C,> 100 µM (inactive),> 100 µM (inactive),> 100 µM (inactive),> 100 µM (inactive),> 100 µM (inactive),> 100 µM (inactive),> 100 µM (inactive),> 100 µM (inactive),> 100 µM (inactive),> 100,> 100 µM (inactive),> 100 µM (inactive),> 100 µM (inactive),> 100 µM (inactive),> 100 µM (inactive),,> 100 µM (inactive),12.8 µM (inactive)
Cc1ccc(-c2cc(-c3ccccc3)c(C#N)c(=O)n2C2OC(CO)C(O)C(O)C2O)cc1 (configuration not stated),> 100 µM (inactive),86.7 µM (inactive),> 100 µM (inactive),> 100 µM (inactive),> 100 µM (inactive),> 100 µM (inactive),> 100 µM (inactive),> 100 µM (inactive),,> 100,> 100 µM (inactive),> 100 µM (inactive),> 100 µM (inactive),> 100 µM (inactive),58.5 µM (inactive),> 100 µM (inactive),> 100 µM (inactive),> 100 µM (inactive)
COc1cc2ccc(CC#N)cc2cc1OC,> 100 µM (inactive),> 100 µM (inactive),> 100 µM (inactive),> 100 µM (inactive),> 100 µM (inactive),> 100 µM (inactive),> 100 µM (inactive),,,,> 100 µM (inactive),,,> 100 µM (inactive),62.1 µM (inactive),> 100 µM (inactive),,> 100 µM (inactive)
Cc1cc(C)nc(NS(=O)(=O)c2ccc(NC(=O)c3ccc(Cl)c4c(Nc5ccc(S(=O)(=O)N=C(N)N)cc5)c5ccccc5nc34)cc2)n1,,19 µM (inactive),> 100 µM (inactive),3.72 µM (inactive),> 100 µM (inactive),51.8 µM (inactive),> 100 µM (inactive),44.3 µM (inactive),> 100 µM (inactive),,> 100 µM (inactive),29.1 µM (inactive),24 µM (inactive),20.8 µM (inactive),> 100 µM (inactive),> 10 µM (inactive),36.3 µM (inactive),17.4 µM (inactive)
CCOC(=O)C1(C)CCC(C(C(=O)O)C(=O)O)CC1=O (configuration not stated),> 100 µM (inactive),,> 100 µM (inactive),> 100 µM (inactive),> 100 µM (inactive),> 100 µM (inactive),> 100 µM (inactive),> 100 µM (inactive),> 100 µM (inactive),> 100,> 100 µM (inactive),> 100 µM (inactive),> 100 µM (inactive),> 100 µM (inactive),> 100 µM (inactive),> 100 µM (inactive),> 100 µM (inactive),> 100 µM (inactive)
CCC12CCCN(Cc3ccccc3)C1c1c(n(C)c3ccccc13)C(CO)C2 (configuration not stated),83 µM (inactive),29.4 µM (inactive),26.9 µM (inactive),43.4 µM (inactive),34.3 µM (inactive),48.6 µM (inactive),,36.1 µM (inactive),,38.3,81.8 µM (inactive),58.1 µM (inactive),14 µM (inactive),42.6 µM (inactive),40.2 µM (inactive),72.1 µM (inactive),51.3 µM (inactive),35.6 µM (inactive)
